Measurements reported in patent US6365605B1, “Substituted hydrochromenopyrroles” (Les Laboratoires Servier, priority 1997, dated 2002).

Molecular target: T1, D3 receptors (expressed in CHO cells) (Homo sapiens, UniProt P35462)
T1 construct: expressed in transfected cells
Assay: In vitro measurement of the affinity to D2 and D3 receptors, [125I]-iodosulpiride radioligand, membrane preparations
Assay type: binding
Details: difference of pKi, D3 vs D2 receptors expressed in CHO cells
Experimental: The affinity of the compounds of the invention to D2 and D3 receptors (expressed independently and in a stable manner in CHO cells) was determined with membrane preparations using [^125I]-iodosulpiride as radioligand (Sokoloff et al., quoted reference). The results are expressed as pKi.

T1 sequence (P35462 whole entry): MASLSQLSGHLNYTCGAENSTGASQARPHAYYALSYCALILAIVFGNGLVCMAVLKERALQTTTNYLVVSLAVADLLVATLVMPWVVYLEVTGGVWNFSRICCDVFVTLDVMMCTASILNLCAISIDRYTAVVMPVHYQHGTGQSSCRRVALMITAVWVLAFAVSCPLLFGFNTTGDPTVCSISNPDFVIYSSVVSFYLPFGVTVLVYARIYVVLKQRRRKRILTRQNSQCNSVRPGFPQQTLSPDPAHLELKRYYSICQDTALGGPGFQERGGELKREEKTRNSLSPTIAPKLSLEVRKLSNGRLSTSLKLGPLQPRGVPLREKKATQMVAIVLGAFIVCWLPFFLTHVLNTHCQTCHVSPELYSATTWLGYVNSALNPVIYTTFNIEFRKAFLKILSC

CC(=O)Nc1ccc(CCN2CC3COc4ccc(C#N)cc4C3C2)cc1.Cl (stereo not shown) [Example 4, (3aα,9bβ)-2-[2-(4-Acetylaminophenyl)ethyl]-8-cyano-1,2,3,3a,4,9b-hexahydrochromeno[3,4-c]pyrrole hydrochloride]
selectivity for D3 receptors compared with D2 receptors: > 1.5 log
